In ChEMBL document CHEMBL1201862, “PubChem BioAssay data set” (2004):
The source made the active and inactive calls.

What was measured:
[1] = Luminescence Cell-Based Dose Response HTS to Identify Inhibitors of 5'UTR Stem-Loop Driven Prion Protein mRNA Translation in H4 Neuroglioblastoma Cells. [Related pubchem assays: 1827 (Project Summary), 1813 (Primary HTS)]; type: functional
cells = type: functional, cell-based
[2] = luciferase reporter signal reduction – luminescence, H4-C neuroglioblastoma cells, dose response (AID 2458); type: functional, cell-based;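 note: H4 neuroglioblastoma cells stably carrying a luciferase reporter gene fusion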
[3] = luciferase reporter signal suppression in cells – H4 neuroglioma cells, luminescence, dose response (AID 1990); type: functional, cell-based
[4] = alpha-synuclein stem-loop translation blockers – luminescence, H4 neuroglioblastoma cells, dose confirmation, confirmation (AID 2454); type: functional, cell-based;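 note: H4 neuroglioblastoma cells carrying an alpha-synuclein 5'UTR luciferase reporter; potency for inhibition of the luciferase signal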
[5] = Luminescence Cell-Based Dose Confirmation HTS to Identify Activators of 5'UTR Stem-Loop Driven Alpha-Synuclein mRNA Translation in H4 Neuroglioblastoma Cells. [Related pubchem assays: 1829 (Project Summary), 1814 (Primary HTS)]; type: functional
[6] = target: DNA dC->dU-editing enzyme APOBEC-3G (Homo sapiens, UniProt Q9HC16); type: functional;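 note: Dose-response counterscreen measuring inhibition of APOBEC3G DNA deaminase activity, run while confirming APOBEC3A inhibitors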
[7] = Luminescence Cell-Based Dose Response HTS to Identify Activators of Luciferase Translation or Activity in H4 […] Cells. [Related pubchem assays: 1829 (Project Summary), 1814 (Primary HTS)]; type: functional
[8] = target: DNA dC->dU-editing enzyme APOBEC-3A (Homo sapiens, UniProt P31941); experiment: Dose Response confirmation of small molecule APOBEC3A DNA Deaminase Inhibitors via a fluorescence-based single-stranded DNA deaminase assay. [Related pubchem assays (depositor defined):AID493011, AID493024]; type: functional
H4 = experiment: Luminescence Cell-Based Dose Response HTS to Identify Activators of 5'UTR Stem-Loop Driven Prion Protein mRNA Translation in H4 Neuroglioblastoma Cells. [Related pubchem assays: 1829 (Project Summary), 1814 (Primary HTS)]; type: functional; details: Homo sapiens
[9] = target: T1, Alkaline phosphatase, tissue-nonspecific isozyme (Homo sapiens, UniProt P05186); experiment: potency against alkaline phosphatase TNAP – biochemical, luminescent, dose response, SAR follow-up (AID 1056)
T1 sequence (P05186 whole entry): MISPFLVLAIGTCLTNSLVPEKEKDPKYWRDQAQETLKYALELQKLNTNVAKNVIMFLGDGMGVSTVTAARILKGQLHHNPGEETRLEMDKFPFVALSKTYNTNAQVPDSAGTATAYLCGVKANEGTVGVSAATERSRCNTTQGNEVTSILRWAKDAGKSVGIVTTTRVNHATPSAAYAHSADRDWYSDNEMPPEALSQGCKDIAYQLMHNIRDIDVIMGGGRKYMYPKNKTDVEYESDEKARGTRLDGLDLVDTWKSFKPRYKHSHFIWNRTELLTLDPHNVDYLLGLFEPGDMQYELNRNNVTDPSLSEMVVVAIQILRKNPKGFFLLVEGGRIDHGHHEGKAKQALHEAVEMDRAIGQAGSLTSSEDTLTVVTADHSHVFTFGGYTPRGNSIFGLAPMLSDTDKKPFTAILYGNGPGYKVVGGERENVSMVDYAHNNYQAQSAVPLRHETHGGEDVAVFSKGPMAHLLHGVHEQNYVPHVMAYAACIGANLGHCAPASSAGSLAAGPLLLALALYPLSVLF

[10] = target: Glyceraldehyde-3-phosphate dehydrogenase (Homo sapiens, UniProt P04406)
Bcl-2-like protein 10 = target: T2, Bcl-2-like protein 10 (Homo sapiens, UniProt Q9HD36); experiment: Bcl-B/TR3 peptide binding disruption – biochemical, fluorescence polarization, FITC-TR3 peptide, selectivity assay for Bfl-1 inhibitor project, primary screen (AID 748);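 note: fluorescence polarization from a fluorescein-labelled TR3 peptide binding purified Bcl-B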
T2 sequence (Q9HD36 whole entry): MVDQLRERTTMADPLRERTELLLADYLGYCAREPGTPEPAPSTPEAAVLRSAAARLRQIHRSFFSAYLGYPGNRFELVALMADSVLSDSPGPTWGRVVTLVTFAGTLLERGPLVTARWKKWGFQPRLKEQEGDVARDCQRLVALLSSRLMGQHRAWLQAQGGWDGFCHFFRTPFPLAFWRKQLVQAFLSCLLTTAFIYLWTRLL

[11] = NIH-3T3 fibroblast cytotoxicity, dose response, cytotoxicity control, cell-based, fluorescence, Alamar Blue, secondary assay (AID 2327); type: functional;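 note: NIH-3T3 mouse fibroblasts cultured with fluconazole at 8 µg/mL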
[12] = target: T3, Short transient receptor potential channel 4 (Mus musculus, UniProt Q9QUQ5); experiment: calcium entry via TRPC4 opening agents – cell-based, HEK293 TRPC4/mu-opioid, Fluo-4 calcium, dose response (AID 434937); type: functional
T3 sequence (Q9QUQ5 whole entry): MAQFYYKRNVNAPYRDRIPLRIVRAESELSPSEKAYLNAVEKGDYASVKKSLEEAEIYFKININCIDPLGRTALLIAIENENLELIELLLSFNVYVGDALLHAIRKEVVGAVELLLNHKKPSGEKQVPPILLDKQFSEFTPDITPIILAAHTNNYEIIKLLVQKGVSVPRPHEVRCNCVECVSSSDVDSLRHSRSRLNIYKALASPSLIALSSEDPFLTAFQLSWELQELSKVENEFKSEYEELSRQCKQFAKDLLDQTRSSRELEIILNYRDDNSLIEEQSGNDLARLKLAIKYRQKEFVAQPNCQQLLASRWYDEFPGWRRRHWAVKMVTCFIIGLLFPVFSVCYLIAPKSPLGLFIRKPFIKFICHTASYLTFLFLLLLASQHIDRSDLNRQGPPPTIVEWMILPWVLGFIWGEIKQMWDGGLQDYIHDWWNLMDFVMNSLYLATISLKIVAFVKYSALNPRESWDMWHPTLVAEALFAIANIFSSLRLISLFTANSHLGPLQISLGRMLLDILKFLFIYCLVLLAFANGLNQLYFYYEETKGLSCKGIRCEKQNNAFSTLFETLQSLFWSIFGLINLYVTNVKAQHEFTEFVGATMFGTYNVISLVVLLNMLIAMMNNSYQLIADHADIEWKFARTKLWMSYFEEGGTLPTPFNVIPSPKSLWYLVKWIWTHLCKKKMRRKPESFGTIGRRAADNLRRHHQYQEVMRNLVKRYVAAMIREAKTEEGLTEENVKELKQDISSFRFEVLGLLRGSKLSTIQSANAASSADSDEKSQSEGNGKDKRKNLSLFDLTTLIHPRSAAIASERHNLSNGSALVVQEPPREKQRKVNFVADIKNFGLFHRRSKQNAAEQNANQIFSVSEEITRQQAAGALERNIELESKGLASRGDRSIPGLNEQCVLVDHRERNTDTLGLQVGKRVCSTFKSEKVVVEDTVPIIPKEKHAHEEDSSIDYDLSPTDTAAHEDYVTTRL

[13] = target: Voltage-dependent T-type calcium channel subunit alpha-1H (Homo sapiens, UniProt O95180); type: functional;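 note: channel activity triggered by adding a high calcium stimulation buffer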
Cytochrome P450 1A2 = target: T4, Cytochrome P450 1A2 (Homo sapiens, UniProt P05177);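 note: PubChem cytochrome P450 panel assay, CYP1A2 panel member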
T4 sequence (P05177 whole entry): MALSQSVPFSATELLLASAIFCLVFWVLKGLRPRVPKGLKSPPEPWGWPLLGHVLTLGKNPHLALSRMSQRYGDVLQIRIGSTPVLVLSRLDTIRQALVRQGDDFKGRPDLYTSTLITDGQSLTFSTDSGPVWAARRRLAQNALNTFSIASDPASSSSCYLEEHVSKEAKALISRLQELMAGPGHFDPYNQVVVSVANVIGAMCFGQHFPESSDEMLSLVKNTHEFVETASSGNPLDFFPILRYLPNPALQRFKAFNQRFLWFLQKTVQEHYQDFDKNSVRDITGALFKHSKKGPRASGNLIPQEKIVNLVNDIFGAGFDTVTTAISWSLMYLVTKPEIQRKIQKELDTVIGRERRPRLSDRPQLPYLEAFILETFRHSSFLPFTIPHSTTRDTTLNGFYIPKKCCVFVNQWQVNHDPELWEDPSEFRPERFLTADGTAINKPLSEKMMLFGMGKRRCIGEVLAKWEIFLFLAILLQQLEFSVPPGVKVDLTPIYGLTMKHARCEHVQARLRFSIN

[14] = Luminescence Cell-Based Dose Confirmation HTS to Identify Inhibitors of Platelet Dense Granule Release. [Related pubchem assays: 1663 (Primary HTS), 1678 (Summary of Project)]; type: functional
[15] = A cytotoxicity screen of small molecule inhibitors of the PhoP region in Salmonella typhi identified in the primary screen. [Related pubchem assays: 1850, 1864, 1985 ]; type: functional
[16] = target: Luciferin 4-monooxygenase (Photinus pyralis, UniProt P08659); experiment: inhibition of purified Photinus pyralis luciferase – biochemical, luminescence, dose response (AID 1891)
[17] = viability loss in THP-1 monocytes – THP-1 cells, cytotoxicity control for Vif-APOBEC3G degradation inhibitor project, dose response (AID 1117359); type: functional; details: THP-1
Mucolipin-3 = target: T5, Mucolipin-3 (Homo sapiens, UniProt Q8TDD5); experiment: Dose response cell-based high-throughput screening assay for agonists of the transient receptor potential channel ML3 (TRPML3). [Related pubchem assays: 1526, 1424, 1448 ]; type: functional
T5 sequence (Q8TDD5 whole entry): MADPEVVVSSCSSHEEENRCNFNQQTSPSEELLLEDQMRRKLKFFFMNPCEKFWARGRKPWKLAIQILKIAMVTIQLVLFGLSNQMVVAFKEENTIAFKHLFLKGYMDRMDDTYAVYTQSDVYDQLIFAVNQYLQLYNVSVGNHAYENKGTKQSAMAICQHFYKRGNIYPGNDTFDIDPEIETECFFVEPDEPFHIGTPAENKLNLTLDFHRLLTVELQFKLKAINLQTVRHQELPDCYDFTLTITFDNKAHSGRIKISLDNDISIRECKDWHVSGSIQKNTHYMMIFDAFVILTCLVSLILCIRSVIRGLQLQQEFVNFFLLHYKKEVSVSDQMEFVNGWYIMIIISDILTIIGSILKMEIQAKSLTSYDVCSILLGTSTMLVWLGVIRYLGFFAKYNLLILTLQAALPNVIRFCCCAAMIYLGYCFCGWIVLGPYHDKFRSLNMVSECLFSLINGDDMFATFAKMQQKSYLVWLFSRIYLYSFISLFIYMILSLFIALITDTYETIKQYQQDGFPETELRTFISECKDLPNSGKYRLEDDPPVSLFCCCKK

[18] = target: T6, Heat shock factor protein 1 (Mus musculus, UniProt P38532); experiment: decrease of HSF1-responsive luciferase luminescence – cell-based, NIH3T3, dose retest, confirmation (AID 2382); type: functional;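 note: NIH3T3 fibroblasts with HSF1-driven luciferase reporter stressed by proteasome inhibitor MG132; luminescence from HSF1-driven luciferase expression after 8 hours of MG132 stress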
T6 sequence (P38532 whole entry): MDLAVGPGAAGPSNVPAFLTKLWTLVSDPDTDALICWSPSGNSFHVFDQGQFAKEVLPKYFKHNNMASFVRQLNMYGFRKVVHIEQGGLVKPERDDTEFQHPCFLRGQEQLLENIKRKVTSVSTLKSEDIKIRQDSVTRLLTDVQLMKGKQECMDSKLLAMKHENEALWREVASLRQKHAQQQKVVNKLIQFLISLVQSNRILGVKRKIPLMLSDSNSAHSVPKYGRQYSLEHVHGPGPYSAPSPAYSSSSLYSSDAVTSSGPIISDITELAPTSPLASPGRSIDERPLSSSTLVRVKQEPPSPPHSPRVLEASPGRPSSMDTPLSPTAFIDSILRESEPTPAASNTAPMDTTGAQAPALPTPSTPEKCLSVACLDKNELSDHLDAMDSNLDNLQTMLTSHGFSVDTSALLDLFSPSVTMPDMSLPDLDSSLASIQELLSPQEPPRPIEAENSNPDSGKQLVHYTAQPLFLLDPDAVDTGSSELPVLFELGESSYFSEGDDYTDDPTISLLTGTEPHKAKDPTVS

Ion channel NompC = Ion channel NompC (Danio rerio, UniProt Q7T1G6); experiment: Fluorescence counterscreen assay for TRPML3 agonists: dose response cell-based high-throughput screening assay to identify agonists of the transient receptor potential channel N1 (TRPN1). [Related pubchem assays: 1526, 1424, 1448 ]; type: functional

Chain of Voltage-dependent T-type calcium channel subunit alpha-1H (O95180 whole entry): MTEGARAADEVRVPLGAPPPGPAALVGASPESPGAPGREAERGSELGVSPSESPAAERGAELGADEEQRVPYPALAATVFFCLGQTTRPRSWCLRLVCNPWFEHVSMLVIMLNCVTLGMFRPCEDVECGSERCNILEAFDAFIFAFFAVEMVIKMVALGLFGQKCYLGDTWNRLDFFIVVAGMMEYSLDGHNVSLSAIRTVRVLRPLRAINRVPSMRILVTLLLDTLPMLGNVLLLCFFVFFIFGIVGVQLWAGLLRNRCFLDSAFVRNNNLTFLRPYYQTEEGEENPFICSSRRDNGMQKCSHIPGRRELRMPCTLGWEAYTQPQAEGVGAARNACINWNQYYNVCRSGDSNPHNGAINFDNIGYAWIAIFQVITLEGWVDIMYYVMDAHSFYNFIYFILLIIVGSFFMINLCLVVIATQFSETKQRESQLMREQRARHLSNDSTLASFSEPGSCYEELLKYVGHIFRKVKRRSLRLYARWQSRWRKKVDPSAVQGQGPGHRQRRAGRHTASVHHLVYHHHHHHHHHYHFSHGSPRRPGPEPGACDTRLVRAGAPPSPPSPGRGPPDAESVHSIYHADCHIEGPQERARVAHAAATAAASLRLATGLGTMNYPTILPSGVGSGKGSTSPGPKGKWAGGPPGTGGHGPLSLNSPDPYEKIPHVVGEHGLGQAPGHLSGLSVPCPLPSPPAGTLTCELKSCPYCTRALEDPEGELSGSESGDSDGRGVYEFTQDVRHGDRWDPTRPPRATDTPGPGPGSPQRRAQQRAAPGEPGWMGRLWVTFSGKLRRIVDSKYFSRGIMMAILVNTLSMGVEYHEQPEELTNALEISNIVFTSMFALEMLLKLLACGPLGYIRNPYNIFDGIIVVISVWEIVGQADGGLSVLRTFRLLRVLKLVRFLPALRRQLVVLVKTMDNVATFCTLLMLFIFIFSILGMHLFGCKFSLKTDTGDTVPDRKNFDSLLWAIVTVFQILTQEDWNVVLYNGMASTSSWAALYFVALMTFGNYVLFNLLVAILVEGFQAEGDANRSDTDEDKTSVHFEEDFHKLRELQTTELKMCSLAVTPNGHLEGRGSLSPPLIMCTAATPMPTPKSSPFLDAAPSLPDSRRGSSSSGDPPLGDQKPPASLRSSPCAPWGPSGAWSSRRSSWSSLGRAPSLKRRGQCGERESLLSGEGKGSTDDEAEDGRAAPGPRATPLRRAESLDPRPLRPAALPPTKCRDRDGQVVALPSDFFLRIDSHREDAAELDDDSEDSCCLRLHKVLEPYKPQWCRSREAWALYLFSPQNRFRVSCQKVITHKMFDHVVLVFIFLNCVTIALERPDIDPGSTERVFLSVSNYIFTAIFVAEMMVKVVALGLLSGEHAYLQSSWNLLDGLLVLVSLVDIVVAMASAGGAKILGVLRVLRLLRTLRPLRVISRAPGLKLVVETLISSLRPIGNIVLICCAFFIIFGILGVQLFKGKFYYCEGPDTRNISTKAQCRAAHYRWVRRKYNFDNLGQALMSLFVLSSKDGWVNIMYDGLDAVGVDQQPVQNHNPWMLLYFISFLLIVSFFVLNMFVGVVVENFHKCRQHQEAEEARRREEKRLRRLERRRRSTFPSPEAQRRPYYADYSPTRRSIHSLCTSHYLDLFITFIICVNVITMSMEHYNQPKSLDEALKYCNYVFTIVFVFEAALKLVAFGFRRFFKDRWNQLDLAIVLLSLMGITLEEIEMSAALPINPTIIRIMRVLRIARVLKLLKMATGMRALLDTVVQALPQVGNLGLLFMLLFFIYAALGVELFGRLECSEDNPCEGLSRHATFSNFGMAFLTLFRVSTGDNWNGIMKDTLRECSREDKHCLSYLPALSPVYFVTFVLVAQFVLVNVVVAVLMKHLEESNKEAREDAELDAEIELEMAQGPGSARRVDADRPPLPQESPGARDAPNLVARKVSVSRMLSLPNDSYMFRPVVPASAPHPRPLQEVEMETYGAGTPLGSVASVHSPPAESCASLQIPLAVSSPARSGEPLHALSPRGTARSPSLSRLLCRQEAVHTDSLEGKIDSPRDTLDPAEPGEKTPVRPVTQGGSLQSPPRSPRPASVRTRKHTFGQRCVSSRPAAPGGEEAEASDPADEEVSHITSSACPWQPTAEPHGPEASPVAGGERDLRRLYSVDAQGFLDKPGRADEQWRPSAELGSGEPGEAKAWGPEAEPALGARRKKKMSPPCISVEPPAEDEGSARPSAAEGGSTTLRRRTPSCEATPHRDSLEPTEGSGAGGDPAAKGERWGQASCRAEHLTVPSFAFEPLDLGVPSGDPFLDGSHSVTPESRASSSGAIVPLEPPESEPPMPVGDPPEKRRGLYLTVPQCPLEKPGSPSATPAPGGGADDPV
Chain of Luciferin 4-monooxygenase (P08659 whole entry): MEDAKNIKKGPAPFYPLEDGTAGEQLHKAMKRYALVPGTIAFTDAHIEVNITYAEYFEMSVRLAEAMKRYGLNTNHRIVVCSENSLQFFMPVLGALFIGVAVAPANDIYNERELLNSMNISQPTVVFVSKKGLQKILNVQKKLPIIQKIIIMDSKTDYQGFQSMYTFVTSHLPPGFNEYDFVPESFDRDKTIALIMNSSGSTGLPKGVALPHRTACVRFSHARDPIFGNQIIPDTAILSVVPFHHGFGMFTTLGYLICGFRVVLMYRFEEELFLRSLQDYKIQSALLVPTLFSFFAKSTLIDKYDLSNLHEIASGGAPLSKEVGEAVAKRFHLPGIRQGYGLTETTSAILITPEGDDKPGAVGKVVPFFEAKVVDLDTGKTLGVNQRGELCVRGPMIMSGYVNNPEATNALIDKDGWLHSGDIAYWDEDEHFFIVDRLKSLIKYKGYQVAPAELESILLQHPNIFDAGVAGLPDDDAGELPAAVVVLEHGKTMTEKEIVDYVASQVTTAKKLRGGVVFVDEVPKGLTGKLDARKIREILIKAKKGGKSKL
Chain of DNA dC->dU-editing enzyme APOBEC-3A (P31941 whole entry): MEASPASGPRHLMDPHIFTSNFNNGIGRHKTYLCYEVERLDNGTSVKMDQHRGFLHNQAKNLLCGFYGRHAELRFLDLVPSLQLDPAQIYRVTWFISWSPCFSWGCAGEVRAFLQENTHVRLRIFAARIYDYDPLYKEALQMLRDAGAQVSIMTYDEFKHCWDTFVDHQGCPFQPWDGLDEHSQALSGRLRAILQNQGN
Chain of DNA dC->dU-editing enzyme APOBEC-3G (Q9HC16 whole entry): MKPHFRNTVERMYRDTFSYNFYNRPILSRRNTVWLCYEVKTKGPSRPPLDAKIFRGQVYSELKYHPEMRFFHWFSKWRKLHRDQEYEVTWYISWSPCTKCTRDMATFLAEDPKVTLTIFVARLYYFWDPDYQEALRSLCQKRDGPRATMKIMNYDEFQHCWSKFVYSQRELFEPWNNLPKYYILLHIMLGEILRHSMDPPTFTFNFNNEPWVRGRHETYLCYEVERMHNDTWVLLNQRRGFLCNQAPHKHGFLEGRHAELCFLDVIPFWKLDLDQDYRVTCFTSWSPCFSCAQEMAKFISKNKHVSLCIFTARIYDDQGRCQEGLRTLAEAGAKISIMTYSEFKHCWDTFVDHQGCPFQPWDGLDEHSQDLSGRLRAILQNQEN
Chain of Glyceraldehyde-3-phosphate dehydrogenase (P04406 whole entry): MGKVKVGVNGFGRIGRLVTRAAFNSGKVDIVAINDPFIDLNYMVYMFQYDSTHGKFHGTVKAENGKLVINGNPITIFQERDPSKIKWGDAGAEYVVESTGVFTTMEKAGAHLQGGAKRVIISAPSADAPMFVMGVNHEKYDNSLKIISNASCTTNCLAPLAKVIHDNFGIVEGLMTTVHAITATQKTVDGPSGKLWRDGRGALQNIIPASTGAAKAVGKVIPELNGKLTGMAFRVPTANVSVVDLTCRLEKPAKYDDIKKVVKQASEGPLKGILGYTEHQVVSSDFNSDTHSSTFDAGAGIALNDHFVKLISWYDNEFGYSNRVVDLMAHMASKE

Cc1ccc(Cn2cc(C=O)c3ccccc32)cc1
EC50 [1]: < 0.1 µM (active)
EC50 (cells): 0.782 µM (active)
EC50 [2]: 1.22 µM (active)
EC50 [3]: 4.41 µM (active)
EC50 [4]: 1.29 µM (active)

Nc1ccc2nc(SCC(=O)Nc3ccc(N4CCOCC4)c(Cl)c3)sc2c1
EC50 [5]: 14.9 µM (active)
IC50 [6]: 8.08 µM (active)
EC50 [7]: 9.41 µM (active)
IC50 [8]: 3.65 µM (active)
EC50 (H4): 49.1 µM (active)

C#CCSc1nnc(N)[nH]1
IC50 [9]: > 100 µM (inactive)
IC50 [10]: > 100 µM (not active)

Cc1nn2c(N)csc2nc1=O
IC50 (Bcl-2-like protein 10): > 12.5 µM (inactive)

CCOc1cc(/C=C(\C#N)C(=O)NCC2CCCO2)ccc1OCC(N)=O (stereo not given)
IC50 [6]: 11 µM (active)
IC50 [8]: 8.13 µM (active)
EC50 [11]: > 160 µM (inactive)

O=C(CC1C(=O)NCCN1Cc1ccccc1C(F)(F)F)NCCc1ccccn1 (stereo not given)
EC50 [12]: 6.68 µM (active)

O=C(Nc1ccc2c(c1)OCCO2)c1cc2sccc2n1Cc1ccccc1
EC50 [13]: 7.92 µM (active)
AC50 (Cytochrome P450 1A2): 12.6 µM (inconclusive)

COc1ccc(NC(=O)N2CCc3ccccc32)cc1
EC50 [14]: 1.08 µM (active)
EC50 [15]: > 50 µM (active)
EC50 [16]: 3.53 µM (active)

O=[N+]([O-])c1cc(-c2ccc(/C=N/c3nc4ccccn4c3-c3ccco3)o2)ccc1Cl
CC50 [17]: 18.8 µM (active)
IC50 (Bcl-2-like protein 10): 96.8 µM (inactive)

CC(C)(C)n1nnnc1C(c1ccc(Cl)cc1)N1CCSCC1 (stereo not given)
EC50 [13]: 0.85 µM (active)
EC50 [14]: > 112 µM (not active)
EC50 [16]: > 112 µM (not active)

COc1ccc(CCn2c(=N)c(C(=O)NCC3CCCO3)cc3c(=O)n4ccccc4nc32)cc1 (stereo not given)
EC50 [14]: 15.7 µM (active)
EC50 [15]: > 50 µM (active)
EC50 [16]: > 112 µM (not active)

COc1ccccc1N1CCN(CCCCOc2ccc(F)cc2)CC1
EC50 [13]: 7.52 µM (active)

COC(=O)c1cc(-c2ccc(C)cc2)[nH]n1
IC50 [9]: 3.43 µM (active)
IC50 [10]: > 100 µM (not active)

CC1=C(C#N)CCC(=O)N1Cc1c(C)cc(C)cc1C
EC50 [15]: > 50 µM (active)

C=CCSc1nc2c(cnn2-c2ccccc2)c(=O)n1N
EC50 (cells): 0.914 µM (inconclusive)
EC50 [2]: 0.375 µM (inconclusive)
EC50 [4]: 0.235 µM (inconclusive)

CCCCn1c(C)cc(C)c(S(=O)(=O)c2ccccc2C)c1=O
EC50 (Mucolipin-3): 3.78 µM (active)
EC50 [18]: > 195 µM (not active)
EC50 (Ion channel NompC): > 29.9 µM (not active)
